In PubChem BioAssay (NCI):
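Assay format: 96-well plates, 48-hour exposure. TGI is the concentration that stops growth completely.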

Tests used:
Experiment in all cases: DTP human tumour cell line panel, 48 h
RXF 393 renal = test system: RXF 393 renal
SK-MEL-2 melanoma = test system: SK-MEL-2 melanoma
MCF7 breast = test system: MCF7 breast
M14 melanoma = test system: M14 melanoma
UACC-257 melanoma = test system: UACC-257 melanoma
OVCAR-5 ovarian = test system: OVCAR-5 ovarian
DU-145 prostate = test system: DU-145 prostate
SF-539 CNS = test system: SF-539 CNS
UO-31 renal = test system: UO-31 renal
SK-MEL-5 melanoma = test system: SK-MEL-5 melanoma
LOX IMVI melanoma = test system: LOX IMVI melanoma
HS 578T breast = test system: HS 578T breast
COLO 205 colon = test system: COLO 205 colon
NCI-H23 lung = test system: NCI-H23 lung
A498 renal = test system: A498 renal

| SMILES | TGI (RXF 393 renal) [µM] | TGI (SK-MEL-2 melanoma) [µM] | TGI (MCF7 breast) [µM] | TGI (M14 melanoma) [µM] | TGI (UACC-257 melanoma) [µM] | TGI (OVCAR-5 ovarian) [µM] | TGI (DU-145 prostate) [µM] | TGI (SF-539 CNS) [µM] | TGI (UO-31 renal) [µM] | TGI (SK-MEL-5 melanoma) [µM] | TGI (LOX IMVI melanoma) [µM] | TGI (HS 578T breast) [µM] | TGI (COLO 205 colon) [µM] | TGI (NCI-H23 lung) [µM] | TGI (A498 renal) [µM] |
| --- | --- | --- | --- | --- | --- | --- | --- | --- | --- | --- | --- | --- | --- | --- | --- |
| Cc1cc(C)nc(NS(=O)(=O)c2ccc(NN=c3c4ccccc4n(C)c4ccccc34)cc2)n1 | 50.8 | 58.8 | 55.7 | > 100 | > 100 | > 100 | > 100 | > 100 | 71.7 | 62.9 | 96.7 | > 100 | > 100 | > 100 |  |
| O=C(O)CN=C(C(=NCC(=O)O)c1ccccc1)c1ccccc1 | > 100 | > 100 | > 100 | > 100 | > 100 | > 100 | > 100 |  | > 100 |  | > 100 | > 100 | > 100 | > 100 | > 100 |
| OC(CC(CC(O)(C(F)(F)Cl)C(F)(F)Cl)=NNc1ccccc1)(C(F)(F)Cl)C(F)(F)Cl | 6.82 | 3.56 | 9.93 | > 10 | 5.24 | > 10 | 9.08 | 8.75 |  | 3.45 | 6.91 | 5.93 | 3.51 | 7.31 | 6.72 |
| COC1(C(C)(C)C)C=C(C(C)(C)C)P(=O)(O)O1 (configuration not stated) |  | > 100 | > 100 | > 100 | > 100 | > 100 | > 100 | > 100 |  | > 100 | > 100 | > 100 | > 100 | > 100 | > 100 |
| C=C1CC(Cn2ccc(=O)[nH]c2=O)(c2ccc(-c3ccccc3)cc2)OC1=O (configuration not stated) |  | 4.55 | 2.67 | 3.58 | 3.88 | 24.7 | 2.88 | 8.89 | 16.5 | 2.39 | 1.07 | 22.9 | 0.338 | 8.4 | 16.1 |
| CCN(CC)c1ccc2c(c1)OC(=O)C(c1nnc(-c3ccc([N+](=O)[O-])cc3)o1)C2 (configuration not stated) | > 100 | > 100 | > 100 | > 100 | > 100 | > 100 | > 100 |  | > 100 | > 100 | > 100 | > 100 | > 100 | > 100 | > 100 |
| O=C(c1ccco1)C1CC(c2ccc3ccccc3c2O)=NN1 (configuration not stated) | > 100 | > 100 | > 100 | > 100 | > 100 | > 100 | > 100 | > 100 | > 100 | > 100 |  | > 100 | > 100 | > 100 | > 100 |
| Oc1ccc(Cl)cc1-c1[nH]c(=S)nc(-c2ccccc2)c1Cl | > 100 | > 100 | > 100 | > 100 | > 100 | > 100 | > 100 |  | > 100 | > 100 | > 100 | > 100 | > 100 | > 100 | > 100 |
| CO[C@H]1O[C@@H]2CO[C@@H](c3ccccc3)O[C@H]2[C@@H]2CC=CCC[C@]12O | > 100 | > 100 | > 100 | > 100 | > 100 | > 100 | > 100 |  | > 100 | > 100 | > 100 | 18.2 | > 100 | > 100 | 92.7 |
| C[C@]12CCC3c4ccc(O)cc4CC[C@H]3C1CC(=O)N(N)C2=O (some centres not stated) | > 100 |  | > 100 | > 100 | > 100 | > 100 | > 100 | > 100 | > 100 | > 100 |  | > 100 | > 100 | > 100 | > 100 |
| Nc1nc(N)c(C2=CCN(Cc3ccccc3)CC2)c(=O)[nH]1 | > 100 | > 100 | > 100 | > 100 | > 100 | > 100 | > 100 | > 100 | > 100 | > 100 |  | > 100 | > 100 | > 100 | > 100 |
| CCOC(=O)N1CCN(c2c(C)nc(C)[nH]c2=O)CC1 | > 100 |  | > 100 | > 100 | > 100 |  | > 100 | > 100 | > 100 | > 100 | > 100 | > 100 | > 100 | > 100 | > 100 |
| Cc1cccc(-n2c(C)nc3ccc(NC4OC(CO)C(O)C(O)C4O)cc3c2=O)c1 (configuration not stated) | > 100 | > 100 | > 100 |  | > 100 | > 100 | > 100 |  | > 100 | > 100 | > 100 | > 100 | > 100 | > 100 | > 100 |
